Assay results taken from PubChem BioAssay AID1963963 (Molecular Pharmacology Branch, DTP, NCI, 2024).

System: 958667-338-R-J2-PDC tumor spheroids viability
Test: Anticancer human tumor 958667-338-R-J2-PDC patient-derived colon adenocarcinoma cell line growth inhibition [PI3K]
Conditions: spheroids with HUVEC and MSC; for IC50: curve of first compound; for viability, T/C: stronger effect = lower value
In short: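 Tumor cells were combined with HUVEC and MSCs into spheroids, then dosed with PI3K-inhibitor combinations over half-log ranges capped near clinical Cmax or 10 microM.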

[1] = second compound 0.00316 µM, first compound 0.0316 µM
[2] = second compound 0.00316 µM, first compound 0.1 µM
[3] = second compound 0.00316 µM, first compound 0.316 µM
[4] = second compound 0.00316 µM, first compound 1 µM
[5] = second compound 0.00316 µM, first compound 3.16 µM
[6] = second compound 0.00316 µM, first compound 10 µM
[7] = second compound 0.01 µM, first compound 0.0316 µM
[8] = second compound 0.01 µM, first compound 0.1 µM
[9] = second compound 0.01 µM, first compound 0.316 µM
[10] = second compound 0.01 µM, first compound 1 µM
[11] = second compound 0.01 µM, first compound 3.16 µM
[12] = second compound 0.01 µM, first compound 10 µM
[13] = second compound 0.0316 µM, first compound 0.0316 µM
[14] = second compound 0.0316 µM, first compound 0.1 µM
[15] = second compound 0.0316 µM, first compound 0.316 µM
[16] = second compound 0.0316 µM, first compound 1 µM
[17] = second compound 0.0316 µM, first compound 3.16 µM
[18] = second compound 0.0316 µM, first compound 10 µM
[19] = second compound 0.1 µM, first compound 0.0316 µM
[20] = second compound 0.1 µM, first compound 0.1 µM
[21] = second compound 0.1 µM, first compound 0.316 µM
[22] = second compound 0.1 µM, first compound 1 µM
[23] = second compound 0.1 µM, first compound 3.16 µM
[24] = second compound 0.1 µM, first compound 10 µM
[25] = second compound 0.316 µM, first compound 0.0316 µM
[26] = second compound 0.316 µM, first compound 0.1 µM
[27] = second compound 0.316 µM, first compound 0.316 µM
[28] = second compound 0.316 µM, first compound 1 µM
[29] = second compound 0.316 µM, first compound 3.16 µM
[30] = second compound 0.316 µM, first compound 10 µM
[31] = second compound 1 µM, first compound 0.0316 µM
[32] = second compound 1 µM, first compound 0.1 µM
[33] = second compound 1 µM, first compound 0.316 µM
[34] = second compound 1 µM, first compound 1 µM
[35] = second compound 1 µM, first compound 3.16 µM
[36] = second compound 1 µM, first compound 10 µM
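Also: spheroids exposed to compounds for seven days before readout.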

Structure (SMILES): C#Cc1c(F)ccc2cc(O)cc(-c3ncc4c(N5CC6CCC(C5)N6)nc(OCC56CCCN5CC(F)C6)nc4c3F)c12 (stereo not drawn) + COc1c(OCCCN2CCOCC2)ccc2c3n(c(=NC(=O)c4cnc(N)nc4)nc12)CCN3
- IC50 (second compound 0.00316 µM): > 10 µM
- IC50 (second compound 0.01 µM): > 10 µM
- IC50 (second compound 0.0316 µM): 6.5 µM
- IC50 (second compound 0.1 µM): 1.09 µM
- IC50 (second compound 0.316 µM): < 0.0316 µM
- IC50 (second compound 1 µM): < 0.0316 µM
- viability, T/C [1]: 112%
- viability, T/C [2]: 107%
- viability, T/C [3]: 83.9%
- viability, T/C [4]: 108%
- viability, T/C [5]: 86.9%
- viability, T/C [6]: 74%
- viability, T/C [7]: 93.4%
- viability, T/C [8]: 86.9%
- viability, T/C [9]: 109%
- viability, T/C [10]: 73.3%
- viability, T/C [11]: 68.7%
- viability, T/C [12]: 56.7%
- viability, T/C [13]: 70.8%
- viability, T/C [14]: 86.9%
- viability, T/C [15]: 73.2%
- viability, T/C [16]: 70.4%
- viability, T/C [17]: 62.1%
- viability, T/C [18]: 42.9%
- viability, T/C [19]: 71.7%
- viability, T/C [20]: 63.4%
- viability, T/C [21]: 54.6%
- viability, T/C [22]: 51.6%
- viability, T/C [23]: 46.7%
- viability, T/C [24]: 28%
- viability, T/C [25]: 35.1%
- viability, T/C [26]: 41.2%
- viability, T/C [27]: 35.8%
- viability, T/C [28]: 32.7%
- viability, T/C [29]: 20.4%
- viability, T/C [30]: 10%
- viability, T/C [31]: 14.1%
- viability, T/C [32]: 18.1%
- viability, T/C [33]: 24.2%
- viability, T/C [34]: 15.9%
- viability, T/C [35]: 8.98%
- viability, T/C [36]: 1.67%

Structure (SMILES): C=CC(=O)N1CCN(c2nc(=O)n(-c3c(C)ccnc3C(C)C)c3nc(-c4c(O)cccc4F)c(F)cc23)C(C)C1 (stereo not drawn) + COc1c(OCCCN2CCOCC2)ccc2c3n(c(=NC(=O)c4cnc(N)nc4)nc12)CCN3
- IC50 (second compound 0.00316 µM): > 10 µM
- IC50 (second compound 0.01 µM): > 10 µM
- IC50 (second compound 0.0316 µM): > 10 µM
- IC50 (second compound 0.1 µM): > 10 µM
- IC50 (second compound 0.316 µM): < 0.0316 µM
- IC50 (second compound 1 µM): < 0.0316 µM
- viability, T/C [1]: 97.1%
- viability, T/C [2]: 97.6%
- viability, T/C [3]: 88.8%
- viability, T/C [4]: 117%
- viability, T/C [5]: 103%
- viability, T/C [6]: 121%
- viability, T/C [7]: 103%
- viability, T/C [8]: 103%
- viability, T/C [9]: 87%
- viability, T/C [10]: 92.6%
- viability, T/C [11]: 107%
- viability, T/C [12]: 94%
- viability, T/C [13]: 82.1%
- viability, T/C [14]: 83%
- viability, T/C [15]: 71.8%
- viability, T/C [16]: 72.4%
- viability, T/C [17]: 78.2%
- viability, T/C [18]: 69.9%
- viability, T/C [19]: 61%
- viability, T/C [20]: 72.7%
- viability, T/C [21]: 52.9%
- viability, T/C [22]: 62.6%
- viability, T/C [23]: 72.4%
- viability, T/C [24]: 64.2%
- viability, T/C [25]: 36.3%
- viability, T/C [26]: 36%
- viability, T/C [27]: 44.4%
- viability, T/C [28]: 42%
- viability, T/C [29]: 47.3%
- viability, T/C [30]: 46.1%
- viability, T/C [31]: 22.6%
- viability, T/C [32]: 23.1%
- viability, T/C [33]: 18.8%
- viability, T/C [34]: 21.2%
- viability, T/C [35]: 25.3%
- viability, T/C [36]: 18.2%

Structure (SMILES): CC(Cn1ccc(-c2ccc(C#N)c(Cl)c2)n1)NC(=O)c1cc(C(C)O)[nH]n1 (stereo not drawn) + COc1c(OCCCN2CCOCC2)ccc2c3n(c(=NC(=O)c4cnc(N)nc4)nc12)CCN3
- IC50 (second compound 0.00316 µM): > 10 µM
- IC50 (second compound 0.01 µM): > 10 µM
- IC50 (second compound 0.0316 µM): > 10 µM
- IC50 (second compound 0.1 µM): 7.69 µM
- IC50 (second compound 0.316 µM): < 0.0316 µM
- IC50 (second compound 1 µM): < 0.0316 µM
- viability, T/C [1]: 109%
- viability, T/C [2]: 89.7%
- viability, T/C [3]: 111%
- viability, T/C [4]: 94.9%
- viability, T/C [5]: 97.7%
- viability, T/C [6]: 102%
- viability, T/C [7]: 83.1%
- viability, T/C [8]: 83.1%
- viability, T/C [9]: 85.2%
- viability, T/C [10]: 81.1%
- viability, T/C [11]: 104%
- viability, T/C [12]: 80.4%
- viability, T/C [13]: 75.3%
- viability, T/C [14]: 74.6%
- viability, T/C [15]: 62.8%
- viability, T/C [16]: 72.4%
- viability, T/C [17]: 76.7%
- viability, T/C [18]: 69.9%
- viability, T/C [19]: 49.5%
- viability, T/C [20]: 66.2%
- viability, T/C [21]: 56.2%
- viability, T/C [22]: 59.2%
- viability, T/C [23]: 58.5%
- viability, T/C [24]: 47.6%
- viability, T/C [25]: 33.6%
- viability, T/C [26]: 40.9%
- viability, T/C [27]: 37%
- viability, T/C [28]: 39.4%
- viability, T/C [29]: 37.3%
- viability, T/C [30]: 49.2%
- viability, T/C [31]: 19.5%
- viability, T/C [32]: 18.7%
- viability, T/C [33]: 20.6%
- viability, T/C [34]: 19.9%
- viability, T/C [35]: 22.5%
- viability, T/C [36]: 14.6%

Structure (SMILES): CC1(C)CCC(Nc2ncc(C(F)(F)F)c(-c3c[nH]c4c(P(C)(C)=O)c(C#N)ccc34)n2)CN1 (stereo not drawn) + COc1c(OCCCN2CCOCC2)ccc2c3n(c(=NC(=O)c4cnc(N)nc4)nc12)CCN3
- IC50 (second compound 0.00316 µM): 3.33 µM
- IC50 (second compound 0.01 µM): 1.98 µM
- IC50 (second compound 0.0316 µM): 3.72 µM
- IC50 (second compound 0.1 µM): 1.4 µM
- IC50 (second compound 0.316 µM): < 0.0316 µM
- IC50 (second compound 1 µM): < 0.0316 µM
- viability, T/C [1]: 90%
- viability, T/C [2]: 94.7%
- viability, T/C [3]: 71.1%
- viability, T/C [4]: 55.7%
- viability, T/C [5]: 66.4%
- viability, T/C [6]: 22.9%
- viability, T/C [7]: 105%
- viability, T/C [8]: 85.8%
- viability, T/C [9]: 68.2%
- viability, T/C [10]: 59.8%
- viability, T/C [11]: 58.7%
- viability, T/C [12]: 19.4%
- viability, T/C [13]: 72.5%
- viability, T/C [14]: 71.5%
- viability, T/C [15]: 65.9%
- viability, T/C [16]: 55%
- viability, T/C [17]: 60.4%
- viability, T/C [18]: 20.9%
- viability, T/C [19]: 69%
- viability, T/C [20]: 71.9%
- viability, T/C [21]: 48.2%
- viability, T/C [22]: 53.7%
- viability, T/C [23]: 44.8%
- viability, T/C [24]: 4.88%
- viability, T/C [25]: 46.3%
- viability, T/C [26]: 42.9%
- viability, T/C [27]: 36.8%
- viability, T/C [28]: 39.5%
- viability, T/C [29]: 25.6%
- viability, T/C [30]: 1.02%
- viability, T/C [31]: 19.9%
- viability, T/C [32]: 16.8%
- viability, T/C [33]: 14.9%
- viability, T/C [34]: 15.8%
- viability, T/C [35]: 10.2%
- viability, T/C [36]: 1.04%
